The values below come from PubChem BioAssay AID434951 (Broad Institute, 2010).

pEC50: −log10 of the molar value. Activity calls are given as the source filed them.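 The calls were made as follows: active = a fitted half-maximal concentration EC50 for the rise in nuclear signal no higher than ten times the top dose tested; inconclusive = flat fit with activity between 30% and 70%, or unusable fit; inactive = EC50 beyond ten times the top dose.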

For the experiment, the target named is Hypoxia-inducible factor 1-alpha (Homo sapiens) (UniProt Q16665). The experiment in a line: HIF pathway activation, GFP-HIF1alpha translocation – imaging, fluorescence, U2OS GFP-HIF1alpha, confirmation (AID 434951). As to conditions: U2OS GFP-HIF1alpha nuclear intensity, high-content imaging.
Chain of Hypoxia-inducible factor 1-alpha (Homo sapiens) (Q16665 whole entry, looked up): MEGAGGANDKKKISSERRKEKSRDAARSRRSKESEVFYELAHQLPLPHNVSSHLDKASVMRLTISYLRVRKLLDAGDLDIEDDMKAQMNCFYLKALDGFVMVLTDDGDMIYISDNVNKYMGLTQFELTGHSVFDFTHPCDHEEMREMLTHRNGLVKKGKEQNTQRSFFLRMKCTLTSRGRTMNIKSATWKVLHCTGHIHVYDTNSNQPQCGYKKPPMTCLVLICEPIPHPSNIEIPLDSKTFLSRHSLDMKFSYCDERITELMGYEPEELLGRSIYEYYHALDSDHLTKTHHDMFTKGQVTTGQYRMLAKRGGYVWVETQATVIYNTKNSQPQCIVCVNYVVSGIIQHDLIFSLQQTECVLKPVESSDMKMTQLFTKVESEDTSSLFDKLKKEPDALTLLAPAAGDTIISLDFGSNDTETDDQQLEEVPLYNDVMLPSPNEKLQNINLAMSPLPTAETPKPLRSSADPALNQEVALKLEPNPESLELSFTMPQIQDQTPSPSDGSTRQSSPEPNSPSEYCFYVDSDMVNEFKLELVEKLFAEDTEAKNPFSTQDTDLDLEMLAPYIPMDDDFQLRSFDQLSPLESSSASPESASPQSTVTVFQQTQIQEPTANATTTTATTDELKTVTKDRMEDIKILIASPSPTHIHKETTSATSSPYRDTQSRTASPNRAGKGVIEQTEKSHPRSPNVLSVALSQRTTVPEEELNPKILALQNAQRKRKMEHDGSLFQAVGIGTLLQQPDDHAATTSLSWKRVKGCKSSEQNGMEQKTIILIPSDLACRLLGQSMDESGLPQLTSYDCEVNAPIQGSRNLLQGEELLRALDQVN
One may read the EC50 as the midpoint of the concentration-response curve. For `Cn1nnc(NC(=O)c2cccc([N+](=O)[O-])c2)n1`, the EC50 was > 35 µM (inactive).
With `COc1cc(/C=C/C(=O)c2ccc3c(c2)OCCO3)cc(Br)c1OCC(=O)N(C)C`, the EC50 is > 35 µM (inactive).
Consider `O=C(CCCc1ccccc1)Nc1ccccn1`, for which the EC50 was > 35 µM (inactive).
The same measure, in the same setting: to `COc1ccc(CCNC(=O)CC(NC(=O)c2ccccc2Cl)c2ccccc2)cc1` (centres undefined) belongs > 35 µM (inactive); to `CCOCCCNC(=S)Nc1cc(C)cc(C)c1`, > 35 µM (inactive).
The same measure, in the same setting: to `CCN(CC)S(=O)(=O)c1ccc(N2CCOCC2)c(NC(=O)c2cccc3ccccc23)c1` belongs > 35 µM (inactive).
The term pEC50 denotes the EC50 on a negative log10 scale, so that one unit is a factor of ten. As to `OCCNc1c2ccccc2nc2ccccc12`, the pEC50 is 4.49.
On to `CCOc1nc(NCCN2CCOCC2)nc(Nc2ccc(C)cc2)n1`, for which the EC50 is > 35 µM (inactive).
The same measure, in the same setting: to `COc1ccc(N/C=C\C(=O)c2ccc3c(c2)OCO3)cc1` belongs > 35 µM (inactive); to `CCNC(=O)COc1cccc(C(=O)NCc2ccccc2)c1`, > 35 µM (inactive); to `CCCC(C)NC(=O)CN1C(=O)NC2(CCc3ccccc32)C1=O` (centres undefined), > 35 µM (inactive).
On the same count and under the same terms, to `COc1ccccc1CCNS(=O)(=O)c1cc2c3c(c1)C(C)C(=O)N3CCC2` (centres undefined) belongs > 35 µM (inactive); to `Cn1cccc1C(=O)NC(=O)COC(=O)c1cc(S(=O)(=O)N2CCCCC2)ccc1Cl`, > 35 µM (inactive); to `CCC1CCc2sc(C(=O)NCc3ccccn3)cc2C1` (centres undefined), > 35 µM (inactive).
On the same count and under the same terms, the result for `COc1ccc(Cl)c(OC)c1C(=O)NC(=O)Nc1c(F)cc(F)cc1F` reads > 35 µM (inactive); that for `CS(=O)(=O)c1ccc2nc(NC(=O)C3CC3)sc2c1`, > 35 µM (inactive); that for `CCOC(=O)C1=C(C)NC(C)=C(C(=O)OCC)C1C(=O)OCC(=O)N(C)C1CCS(=O)(=O)C1` (centres undefined), > 35 µM (inactive).
Consider `CCC(=O)NC(c1ccc(OC)cc1)c1cc(Cl)c2cccnc2c1O` (centres undefined), for which the negative logarithm of the EC50 (pEC50) was 4.93.
On to `CC(=O)Nc1cccc(NC(=O)CS(=O)(=O)c2cn(CC(=O)N3CCOCC3)c3ccccc23)c1`, for which the EC50 was > 35 µM (inactive).
Still for that read-out and setting: the result for `Cc1cc(C)[n+](Cc2ccccc2)cc1C(N)=O` reads > 35 µM (inactive); that for `CCCc1nc2ccccc2c(=O)n1/N=C/c1ccccc1O`, > 35 µM (inactive).
Same read-out and setting: to `COc1cc(C(=O)Nc2sc(C)c(C)c2C(=O)O)cc(OC)c1OC` belongs > 35 µM (inactive).
For `COc1cnc(-c2ccccn2)nc1N(C)c1ccccc1`, the pEC50 is 5.03.
Regarding `COc1cccc(/C=N/NC(=O)CNC(=O)C(c2ccccc2)c2ccccc2)c1O`, the EC50 is > 35 µM (inactive).
Turning to `Nc1nc(-c2ccccn2)nc(N)c1Cc1ccc(Cl)cc1Cl`, the pEC50 was 5.21.
Take `CC1(C)CC(NC(=O)CCC2CCCC2)CC(C)(C)N1`: the EC50 is > 35 µM (inactive).
`COC(=O)C1=Nc2ccccc2/C1=C\c1c(O)n(-c2cc(OC)ccc2OC)c(=O)[nH]c1=O`: the EC50 is > 35 µM (inactive).
As for `Cc1cc(C)nc(Sc2ncnc(N)c2[N+](=O)[O-])n1`, the pEC50 is 4.69.
Take `CC(=O)c1ccc(N2C(=NC(=O)COc3ccccc3)SC3CS(=O)(=O)CC32)cc1` (centres undefined): the EC50 was > 35 µM (inactive).
With `COc1ccc(CCNc2nncc(=O)[nH]2)cc1OC`, the EC50 was > 35 µM (inactive).
For the compound `C(/CCc1ccccc1)=N\Nc1nc2ccccc2[nH]1`, the pEC50 is 4.45.
For `CCC(=O)NC(c1ccccc1OC)c1ccc2cccnc2c1O` (centres undefined), the pEC50 is 5.21.
Consider `O=C(CCc1nnc(-c2ccccc2)o1)c1ccc(Cl)cc1`, for which the EC50 was > 35 µM (inactive).
As to `O=C(NCCCn1ccnc1)c1cc(-c2cccs2)on1`, the pEC50 is 5.57.
For the compound `Oc1ccc(/C=N/NC(=S)NC2CC3CCC2C3)cc1` (centres undefined), the EC50 is > 35 µM (inactive).
Take `Cc1ccc(Nc2c(-c3ccccn3)nc3cc(C)ccn23)cc1`: the pEC50 is 5.26.
For `COC(=O)C1=C(C)N(Cc2ccc(OC)cc2)C(=O)C1`, the EC50 was > 35 µM (inactive).
In the case of `O=C(c1ccc(OC2CCN(CCc3ccccc3)CC2)cc1)N1CCCC(CCCO)C1` (centres undefined), the EC50 was > 35 µM (inactive).
`Cn1c(NN=O)nc2ccccc21`: the pEC50 is 5.02.
With `CCN(CC)c1ccc(/C=N/NC(=O)c2cccc(S(=O)(=O)N3CCOCC3)c2)c(O)c1`, the pEC50 was 5.95.
On to `CCCCNC(=O)c1cc(-c2ccc(F)cc2)on1`, for which the pEC50 was 5.03.
On the same count and under the same terms, the result for `Cc1snc(SCC(=O)N/N=C(\N)COc2cccc(C(F)(F)F)c2)c1C#N` reads 4.65.
In the case of `O=C(N/N=C/c1ccc(F)cc1)c1cc(-c2ccc3c(c2)OCO3)n[nH]1`, the pEC50 is 4.79.
As to `O=C(CN1CCCC1)N/N=C/c1c(O)ccc2ccccc12`, the pEC50 is 5.09.
On to `N#Cc1ccccc1OCCCN1CCC(Cc2ccccc2)CC1`, for which the EC50 is > 35 µM (inactive).
Same read-out and setting: to `COc1ccc(CCNC(=O)CSc2nc(-c3ccc(OC)c(OC)c3)ccc2C#N)cc1` belongs > 35 µM (inactive).
The same measure, in the same setting: the result for `FC(F)(F)c1cnc(N2CCN(C(=S)NCc3ccccc3)CC2)c(Cl)c1` reads > 35 µM (inactive); that for `Cc1cc(C)c2nc(N3CCN(C(=O)c4ccco4)CC3)sc2c1`, > 35 µM (inactive).
In the case of `COc1ccc(C(=O)/C=C/C(=O)N(CC(=O)NC2CCCCC2)CC2CCCO2)c(O)c1` (centres undefined), the EC50 is > 35 µM (inactive).
Turning to `O=C(N/N=C/c1c(O)ccc2ccccc12)c1cccc(C(F)(F)F)c1`, the negative logarithm of the EC50 (pEC50) is 5.07.
Regarding `O=S(=O)(/C=C/c1ccccc1)N1CCNCC1`, the EC50 was > 35 µM (inactive).
For `Oc1c(CN2CCc3ccccc3C2)cc(Cl)c2cccnc12`, the pEC50 was 5.14.
As to `Cc1ccc2c(c1)cc(C(=O)NCc1ccccc1)n2C`, the EC50 was > 35 µM (inactive).
As for `CCN(CC(=O)Nc1ccc2c(c1)OCCO2)CC(=O)Nc1ccc2c(c1)OCO2`, the EC50 is > 35 µM (inactive).
On to `C(=N\Nc1nc2ccccc2[nH]1)/c1cccc2nccnc12`, for which the pEC50 was 4.80.
In the case of `CS(=O)(=O)n1nc(-c2ccccc2)nc1NCc1ccco1`, the EC50 was > 35 µM (inactive).
Same read-out and setting: the result for `C=CCc1c(C)nc2c(-c3ccccc3)cnn2c1N1CCOCC1` reads > 35 µM (inactive).
On the same count and under the same terms, the result for `Cc1ccc(C)c(CNS(=O)(=O)c2ccc3c(c2)C(C)(C)C(=O)N3C)c1` reads > 35 µM (inactive).
For the compound `COCCNC(=O)c1cc(-c2cccs2)on1`, the negative logarithm of the EC50 (pEC50) is 4.92.
Take `Cc1ccc2nc(SCC(=O)c3ccccc3)nc(=O)n2c1`: the EC50 is > 35 µM (inactive).
Consider `CN1CCN(C2Cc3ccc(F)cc3Sc3cc(F)c(Cl)cc32)CC1` (centres undefined), for which the EC50 is > 35 µM (inactive).
In the case of `CC(=O)NC(c1ccc(Cl)cc1Cl)c1ccc2cccnc2c1O` (centres undefined), the pEC50 is 4.89.
For the compound `O=C(c1cccnc1)c1cc2ccccc2[nH]1`, the EC50 is > 35 µM (inactive).
Same read-out and setting: to `Cc1ccc(NC(=S)N/C(=N/S(=O)(=O)c2ccccc2)c2ccccc2)cc1` belongs > 35 µM (inactive); to `Cc1ccc(C(CC(=O)O)C2CCOC(C)(C)C2)cc1` (centres undefined), > 35 µM (inactive).
In the case of `Oc1c(CN2CCN(c3ccc(F)cc3)CC2)cc(Cl)c2cccnc12`, the pEC50 was 5.22.
As to `Cc1cc(Oc2ccccc2)nc(N2CCOCC2)n1`, the EC50 is > 35 µM (inactive).
Regarding `Cc1nnc(-c2ccccc2)c(=O)n1/N=C/c1c(O)ccc2ccccc12`, the pEC50 is 5.08.
`Nc1nc2nc(-c3cccs3)cc(C(F)(F)F)n2n1`: the EC50 was > 35 µM (inactive).
With `COc1ccc(-c2csc(NNC3=NCCCCC3)n2)cc1`, the pEC50 is 4.52.
With `Cc1cc2ccc3ccccc3c2cc1CN(C)C`, the EC50 is > 35 µM (inactive).
Still for that read-out and setting: the result for `COCCn1c(=NC(=O)c2ccc(S(=O)(=O)N3CCCc4ccccc43)cc2)sc2cc(S(C)(=O)=O)ccc21` reads > 35 µM (inactive); that for `NC(=O)c1sc2nccc(Nc3ccccc3)c2c1N`, > 35 µM (inactive).
`O=[N+]([O-])c1cc(Cl)cc(/C=N\Nc2ccccn2)c1O`: the negative logarithm of the EC50 (pEC50) is 5.78.
Still for that read-out and setting: to `Oc1ccc2ccccc2c1N=Nc1nccs1` belongs 5.24.
For the compound `COc1cccc(C(=O)C2CCCN(Cc3ccc4nsnc4c3)C2)c1` (centres undefined), the EC50 was > 35 µM (inactive).
Take `Cc1cccnc1Nc1nc(-c2ccccn2)cs1`: the pEC50 is 5.42.
`CCOC(=O)C1CCN(C(=O)C2CCCN(c3ncnc4c3nc3n4CCCCC3)C2)CC1` (centres undefined): the EC50 was > 35 µM (inactive).
Same read-out and setting: the result for `Cc1nc2cc(-c3ccccc3)sc2c(=O)n1N` reads > 35 µM (inactive).
As to `Cc1ccc2nc(-c3ccccn3)c(Nc3ccccc3C)n2c1`, the pEC50 was 5.21.
With `Oc1ccc(Cl)cc1CNCC1CCCO1` (centres undefined), the EC50 was > 35 µM (inactive).
As to `CC1=NC(C#N)=C(C#N)NC(C)(C)C1`, the EC50 was > 35 µM (inactive).
The same measure, in the same setting: the result for `CCOc1ccccc1NC(=O)COc1ccc2c(c1)OCO2` reads > 35 µM (inactive).
`Cc1cc(C)c2nc(NNC(=O)c3ccc(S(=O)(=O)N4CCCC(C)C4)cc3)sc2c1` (centres undefined): the pEC50 was 5.14.
Regarding `CN(CC(=O)Nc1ccc(F)c(F)c1F)C(=O)/C=C/c1ccc(Cl)cc1`, the EC50 was > 35 µM (inactive).
As for `O=C(Nc1nc(-c2ccccn2)cs1)c1cc(Cl)ccc1[N+](=O)[O-]`, the pEC50 was 5.00.
For the compound `CC(=O)NCCC(=O)Nc1cc(S(=O)(=O)N2CCOCC2)ccc1N1CCOCC1`, the EC50 is > 35 µM (inactive).
The same measure, in the same setting: to `c1ccc(-c2nnc3sc(-c4cc5ccccc5o4)nn23)cc1` belongs > 35 µM (inactive).
Take `Cc1nc2ccccc2nc1N/N=C/c1ccc(O)cc1O`: the negative logarithm of the EC50 (pEC50) is 4.44.
With `C=C(C)CNC(=O)c1ccc2nc(Cc3ccc(OC)cc3)oc2c1`, the EC50 was > 35 µM (inactive).
The same measure, in the same setting: to `O=C1C=C(c2ccccc2)CC(c2cccs2)C1n1cnc([N+](=O)[O-])c1` (centres undefined) belongs > 35 µM (inactive).
Regarding `Oc1c(CN2CCN(c3ccccc3)CC2)cc(Br)c2cccnc12`, the pEC50 was 5.25.
With `Cc1cc(C)cc(N(CC(=O)Nc2ccccc2C(=O)N2CCOCC2)S(C)(=O)=O)c1`, the EC50 was > 35 µM (inactive).
In the case of `O=C(NC1=NCCS1)c1cccc(NC(=O)c2ccco2)c1`, the EC50 was > 35 µM (inactive).
